The Ki is the equilibrium dissociation constant of an inhibitor or competing ligand from its target. High values mean a looser hold on the target, low ones a stronger hold on the target. The Dmax is the greatest extent of degradation seen. A low value points to a partial loss of target.

Some results are limits rather than exact numbers.

For one assay, the target named is CRBN-DDB1 (Homo sapiens, UniProt Q96SW2). Kind of assay: Compound binding to CRBN by HTRF assay. The conditions noted are these: CRBN-DDB1 2.5 nM, Cy5-Thalidomide 100 nM, 30 min; Ki from geometric mean IC50 by Cheng-Prustoff transformation. In outline: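 HTRF displacement of Cy5-thalidomide probe (100 nM) from His-CRBN-DDB1 (2.5 nM) with anti-His terbium cryptate, in HEPES/NaCl/TCEP/EDTA/Tween20 buffer. 10-point 1:3 compound series, 30 min at ambient temperature; signal normalised to DMSO and lenalidomide controls, IC50 fitted and Ki derived by Cheng-Prusoff.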
Sequence of CRBN-DDB1 (Q96SW2 whole entry): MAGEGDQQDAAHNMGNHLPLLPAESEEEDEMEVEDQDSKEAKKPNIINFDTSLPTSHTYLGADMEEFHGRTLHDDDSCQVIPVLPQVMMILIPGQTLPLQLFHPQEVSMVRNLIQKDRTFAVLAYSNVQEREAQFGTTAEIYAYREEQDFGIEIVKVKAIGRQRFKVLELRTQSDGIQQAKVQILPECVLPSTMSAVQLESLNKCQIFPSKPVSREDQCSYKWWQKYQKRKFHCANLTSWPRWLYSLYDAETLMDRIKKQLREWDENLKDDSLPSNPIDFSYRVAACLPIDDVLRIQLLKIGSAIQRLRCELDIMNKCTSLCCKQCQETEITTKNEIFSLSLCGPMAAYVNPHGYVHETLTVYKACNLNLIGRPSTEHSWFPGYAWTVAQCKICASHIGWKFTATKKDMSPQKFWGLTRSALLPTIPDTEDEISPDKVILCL
Sequence of CRBN-DDB1 (Q16531 whole entry partner): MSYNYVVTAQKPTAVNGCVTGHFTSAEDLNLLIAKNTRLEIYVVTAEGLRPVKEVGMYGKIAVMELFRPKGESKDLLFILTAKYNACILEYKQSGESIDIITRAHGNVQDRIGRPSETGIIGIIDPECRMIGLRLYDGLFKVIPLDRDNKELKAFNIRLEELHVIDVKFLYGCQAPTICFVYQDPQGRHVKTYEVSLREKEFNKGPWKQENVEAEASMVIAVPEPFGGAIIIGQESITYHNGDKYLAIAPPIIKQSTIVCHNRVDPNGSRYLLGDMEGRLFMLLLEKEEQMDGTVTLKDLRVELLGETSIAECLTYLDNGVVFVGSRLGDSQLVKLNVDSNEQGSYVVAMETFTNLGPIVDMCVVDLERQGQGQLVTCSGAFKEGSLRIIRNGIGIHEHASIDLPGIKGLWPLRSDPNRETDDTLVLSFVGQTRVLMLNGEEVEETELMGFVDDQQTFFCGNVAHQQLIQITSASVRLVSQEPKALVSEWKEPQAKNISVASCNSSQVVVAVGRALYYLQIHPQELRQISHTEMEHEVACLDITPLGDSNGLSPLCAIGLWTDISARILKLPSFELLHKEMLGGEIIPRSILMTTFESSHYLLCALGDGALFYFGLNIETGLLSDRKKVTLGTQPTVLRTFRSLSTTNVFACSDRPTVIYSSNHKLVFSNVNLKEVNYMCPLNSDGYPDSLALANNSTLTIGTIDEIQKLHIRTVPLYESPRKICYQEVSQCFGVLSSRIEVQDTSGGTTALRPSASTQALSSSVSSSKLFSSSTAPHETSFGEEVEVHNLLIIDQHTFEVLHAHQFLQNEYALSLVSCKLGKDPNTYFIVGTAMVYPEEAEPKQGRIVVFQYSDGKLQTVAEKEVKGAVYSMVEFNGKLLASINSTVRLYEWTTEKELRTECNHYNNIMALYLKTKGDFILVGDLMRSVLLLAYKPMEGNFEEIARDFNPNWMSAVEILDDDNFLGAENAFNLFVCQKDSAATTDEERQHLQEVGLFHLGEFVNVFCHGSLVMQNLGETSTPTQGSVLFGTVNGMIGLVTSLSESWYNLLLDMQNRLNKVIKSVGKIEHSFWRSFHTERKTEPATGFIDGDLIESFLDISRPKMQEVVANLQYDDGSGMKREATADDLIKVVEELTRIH

The target in the next assay is T1, CDK2 (Homo sapiens, UniProt P24941).
T1 construct: HEK293 clonal lines with CRISPR KI HiBiT tag on CDK2 proteins; host or cells: HEK293 clonal line, CRISPR knock-in HiBiT-CDK2, stably expressing LgBiT
Kind of assay: HiBiT assay (CDK2 degradation). Type of assay: cell-based. The conditions noted are these: HEK293 clonal line with CRISPR KI HiBiT tag on CDK2, 24 hours, HiBiT Lysis Reagent. On the procedure: HEK293 clonal lines with CRISPR KI HiBiT tag on CDK2 proteins and stably expressing LgBiT protein were obtained from Promega (Madison, WI). Cells were plated at 5000 cells per well using Multiflo (BioTek) in 384-well white solid bottom plates (Corning, 3570BC) in 25 ul volume in DMEM media (DMEM, high glucose, HEPES, no phenol red (ThermoFisher Scientific, 21063029)) containing 10% FBS (Corning, 35-075-CV), 1% Penicillin/Streptomycin (ThermoFisher Scientific, 15140-122). Cells were incubated for 16 hours at 37° C., 5% CO2. 75 nL of a compound at 30 μM were dosed into the plate using an Echo® 650 liquid handler (Labcyte). Cells were incubated at 37° C., 5% CO2 for 24 hours. 5 ul of HiBiT Lysis Reagent (Promega, N3030) is added using Combi Multidrop (ThermoFisher Scientific), plates are incubated for 15′ at 37° C., 5% CO2 and then signal was read on a Pherastar FSX using “LUM plus” optic module.
Analysis was performed in Scinamic (Scinamic, Cambridge, MA). Luminescence response (R) was calculated by the formula: response=100*(S−N)/(P−N) where S is the signal of the well, N and P the mean negative and positive control values respectively of the same plate. The luminescence response was then fitted in Scinamic using a 3-parameter agonist logistic fit (hillslope=1, EC50>0, top/bottom unconstrained).

`CN1CCC(COC(=O)NCc2ccc3c(c2)C(=O)N(C2CCC(=O)NC2=O)C3)C1` (stereo not drawn) [Compound 39, (1-methylpyrrolidin-3-yl)methyl N-{[2-(2,6-dioxopiperidin-3-yl)-3-oxo-2,3-dihydro-1H-isoindol-5-yl]methyl}carbamate] gave a Ki on CRBN-DDB1 of 100 to 1000 nM. Moreover, the greatest degradation seen (Dmax) on CDK2 was no more than 10%.
On CRBN-DDB1, `C[C@H]1CCC[C@@H]1OC(=O)NCc1ccc2c(c1)C(=O)N(C1CCC(=O)NC1=O)C2` (stereo partly drawn) [Compound 32, (1S,2S)-2-methylcyclopentyl N-{[2-(2,6-dioxopiperidin-3-yl)-3-oxo-2,3-dihydro-1H-isoindol-5-yl]methyl}carbamate] had a Ki of 100 to 1000 nM. At CDK2, this molecule yielded a Dmax of 10 to 50%.
Take `C[C@H](OC(=O)NCc1ccc2c(c1)C(=O)N(C1CCC(=O)NC1=O)C2)C1CC1` (stereo partly drawn) [Compound 28, (1S)-1-cyclopropylethyl N-{[2-(2,6-dioxopiperidin-3-yl)-3-oxo-2,3-dihydro-1H-isoindol-5-yl]methyl}carbamate]: the Ki at CRBN-DDB1 was 100 to 1000 nM. The Dmax at CDK2 was 10 to 50%.
The matching figures for `O=C1CCC(N2Cc3ccc(CNC(=O)OCCC4CC(F)(F)C4)cc3C2=O)C(=O)N1` (stereo not drawn) [Compound 47, 2-(3,3-difluorocyclobutyl)ethyl N-{[2-(2,6-dioxopiperidin-3-yl)-3-oxo-2,3-dihydro-1H-isoindol-5-yl]methyl}carbamate]: 100 to 1000 nM and 10 to 50%.
Regarding `CC1(C)CCC1OC(=O)NCc1ccc2c(c1)C(=O)N(C1CCC(=O)NC1=O)C2` (stereo not drawn) [Compound 24, 2,2-dimethylcyclobutyl N-{[2-(2,6-dioxopiperidin-3-yl)-3-oxo-2,3-dihydro-1H-isoindol-5-yl]methyl}carbamate], the inhibition constant Ki at CRBN-DDB1 fell in the range of 100 to 1000 nM. The same molecule showed a maximal degradation (Dmax) at CDK2 of 10 to 50%.
Turning to `O=C1CCC(N2Cc3ccc(CNC(=O)OCC4CCC(F)(F)C4)cc3C2=O)C(=O)N1` (stereo not drawn) [Compound 54, (3,3-difluorocyclopentyl)methyl N-{[2-(2,6-dioxopiperidin-3-yl)-3-oxo-2,3-dihydro-1H-isoindol-5-yl]methyl}carbamate], the Ki on CRBN-DDB1 was in the range of 100 to 1000 nM. At CDK2, this molecule had a Dmax of 10 to 50%.
The matching figures for `CN1C(=O)CCC1COC(=O)NCc1ccc2c(c1)C(=O)N(C1CCC(=O)NC1=O)C2` (stereo not drawn) [Compound 36, (1-methyl-5-oxopyrrolidin-2-yl)methyl N-{[2-(2,6-dioxopiperidin-3-yl)-3-oxo-2,3-dihydro-1H-isoindol-5-yl]methyl}carbamate]: no more than 100 nM and no more than 10%.
With `CC1(COC(=O)NCc2ccc3c(c2)C(=O)N(C2CCC(=O)NC2=O)C3)CCCCO1` (stereo not drawn) [Compound 64, (2-methyloxan-2-yl)methyl N-{[2-(2,6-dioxopiperidin-3-yl)-3-oxo-2,3-dihydro-1H-isoindol-5-yl]methyl}carbamate], on CRBN-DDB1, the Ki is no more than 100 nM. Further, the Dmax at CDK2 was 10 to 50%.
Regarding `O=C1CCC(N2Cc3ccc(CNC(=O)OC[C@@H]4C[C@@H]5C=C[C@H]4CC5)cc3C2=O)C(=O)N1` (mixture of isomers) [Compound 70, rac-[(1R,2R,4R)-bicyclo[2.2.2]oct-5-en-2-yl]methyl N-{[2-(2,6-dioxopiperidin-3-yl)-3-oxo-2,3-dihydro-1H-isoindol-5-yl]methyl}carbamate], the Ki on CRBN-DDB1 was no more than 100 nM. Moreover, the maximal degradation (Dmax) on CDK2 lay in the range of 50 to 80%.
Molecule `CO[C@H]1C[C@@H](OC(=O)NCc2ccc3c(c2)C(=O)N(C2CCC(=O)NC2=O)C3)C1` (stereo partly drawn) [Compound 23, (1s,3s)-3-methoxycyclobutyl N-{[2-(2,6-dioxopiperidin-3-yl)-3-oxo-2,3-dihydro-1H-isoindol-5-yl]methyl}carbamate] registered an inhibition constant (Ki) at CRBN-DDB1 of 100 to 1000 nM. This molecule also registered a Dmax at CDK2 of no more than 10%.
In the case of `O=C1CCC(N2Cc3ccc(CNC(=O)OC4CC5(CCOCC5)C4)cc3C2=O)C(=O)N1` (stereo not drawn) [Compound 90, 7-oxaspiro[3.5]nonan-2-yl N-{[2-(2,6-dioxopiperidin-3-yl)-3-oxo-2,3-dihydro-1H-isoindol-5-yl]methyl}carbamate], the inhibitory constant (Ki) on CRBN-DDB1 fell in the range of 100 to 1000 nM. Besides, at CDK2, the maximal degradation (Dmax) lay in the range of 10 to 50%.
Turning to `CC1(C)CCC(OC(=O)NCc2ccc3c(c2)C(=O)N(C2CCC(=O)NC2=O)C3)CC1` (stereo not drawn) [Compound 1, 4,4-dimethylcyclohexyl ((2-(2,6-dioxopiperidin-3-yl)-3-oxoisoindolin-5-yl)methyl)carbamate], the Ki at CRBN-DDB1 was 100 to 1000 nM. This molecule also registered a Dmax at CDK2 of 10 to 50%.
The corresponding values for `O=C1CCC(N2Cc3ccc(CNC(=O)OCC4CC5(C4)CC54CCC4)cc3C2=O)C(=O)N1` (stereo not drawn) [Compound 93, {dispiro[3.0.3^5.1^4]nonan-2-yl}methyl N-{[2-(2,6-dioxopiperidin-3-yl)-3-oxo-2,3-dihydro-1H-isoindol-5-yl]methyl}carbamate] are no more than 100 nM and 50 to 80%.
At CRBN-DDB1, `C[C@H]1C[C@@H]1COC(=O)NCc1ccc2c(c1)C(=O)N(C1CCC(=O)NC1=O)C2` (stereo partly drawn) [Compound 25, [(1S,2S)-2-methylcyclopropyl]methyl N-{[2-(2,6-dioxopiperidin-3-yl)-3-oxo-2,3-dihydro-1H-isoindol-5-yl]methyl}carbamate] yielded an inhibitory constant (Ki) of 100 to 1000 nM. For the same molecule, the greatest degradation seen (Dmax) on CDK2 was no more than 10%.
The corresponding values for `O=C1CCC(N2Cc3ccc(CNC(=O)OCC4(c5ccccc5)CC(F)(F)C4)cc3C2=O)C(=O)N1` (stereo not drawn) [Compound 38, (3,3-difluoro-1-phenylcyclobutyl)methyl N-{[2-(2,6-dioxopiperidin-3-yl)-3-oxo-2,3-dihydro-1H-isoindol-5-yl]methyl}carbamate] are no more than 100 nM and 10 to 50%.
The corresponding values for `O=C1CCC(N2Cc3ccc(CNC(=O)OCC4C(F)(F)C45CC5)cc3C2=O)C(=O)N1` (stereo not drawn) [Compound 86, {2,2-difluorospiro[2.2]pentan-1-yl}methyl N-{[2-(2,6-dioxopiperidin-3-yl)-3-oxo-2,3-dihydro-1H-isoindol-5-yl]methyl}carbamate] are no more than 100 nM and 50 to 80%.
Molecule `CC1(C)CCC(OC(=O)NCc2ccc3c(c2)CN(C2CCC(=O)NC2=O)C3=O)CC1` (stereo not drawn) [Compound 15, 4,4-dimethylcyclohexyl N-{[2-(2,6-dioxopiperidin-3-yl)-1-oxo-2,3-dihydro-1H-isoindol-5-yl]methyl}carbamate] yielded a Ki on CRBN-DDB1 of no more than 100 nM. Moreover, at CDK2, the Dmax lay in the range of 50 to 80%.
The corresponding values for `CN1CCC(COC(=O)NCc2ccc3c(c2)C(=O)N(C2CCC(=O)NC2=O)C3)CC1` (stereo not drawn) [Compound 34, (1-methylpiperidin-4-yl)methyl N-{[2-(2,6-dioxopiperidin-3-yl)-3-oxo-2,3-dihydro-1H-isoindol-5-yl]methyl}carbamate] are 100 to 1000 nM and no more than 10%.
At CRBN-DDB1, `O=C1CCC(N2Cc3ccc(CNC(=O)OC4CCc5ccccc5C4)cc3C2=O)C(=O)N1` (stereo not drawn) [Compound 17, 1,2,3,4-tetrahydronaphthalen-2-yl N-{[2-(2,6-dioxopiperidin-3-yl)-3-oxo-2,3-dihydro-1H-isoindol-5-yl]methyl}carbamate] returned an inhibitory constant (Ki) of 100 to 1000 nM. The greatest degradation seen (Dmax) at CDK2 fell in the range of 10 to 50%.
The molecule `O=C1CCC(N2Cc3ccc(CNC(=O)OCCOC4COC4)cc3C2=O)C(=O)N1` (stereo not drawn) [Compound 33, 2-(oxetan-3-yloxy)ethyl N-{[2-(2,6-dioxopiperidin-3-yl)-3-oxo-2,3-dihydro-1H-isoindol-5-yl]methyl}carbamate] returned a Ki on CRBN-DDB1 of 100 to 1000 nM. This molecule also returned a Dmax at CDK2 of 10 to 50%.
At CRBN-DDB1, `O=C1CCC(N2Cc3ccc(CNC(=O)OCC4CC5(CCC5)C4)cc3C2=O)C(=O)N1` (stereo not drawn) [Compound 2, spiro[3.3]heptan-2-ylmethyl ((2-(2,6-dioxopiperidin-3-yl)-3-oxoisoindolin-5-yl)methyl)carbamate] returned a Ki of 100 to 1000 nM. The Dmax at CDK2 was in the range of 50 to 80%.
In turn, `CC1(COC(=O)NCc2ccc3c(c2)C(=O)N(C2CCC(=O)NC2=O)C3)COC1` (stereo not drawn) [Compound 16, (3-methyloxetan-3-yl)methyl N-{[2-(2,6-dioxopiperidin-3-yl)-3-oxo-2,3-dihydro-1H-isoindol-5-yl]methyl}carbamate] returned a Ki on CRBN-DDB1 of 100 to 1000 nM. The Dmax at CDK2 was no more than 10%.
At CRBN-DDB1, `O=C1CCC(N2Cc3ccc(CNC(=O)OCC4CCCCO4)cc3C2=O)C(=O)N1` (stereo not drawn) [Compound 41, (oxan-2-yl)methyl N-{[2-(2,6-dioxopiperidin-3-yl)-3-oxo-2,3-dihydro-1H-isoindol-5-yl]methyl}carbamate] showed an inhibition constant Ki of 100 to 1000 nM. The molecule further came in with a Dmax at CDK2 of 10 to 50%.
Consider `O=C1CCC(N2Cc3ccc(CNC(=O)OCC4CC45CCOCC5)cc3C2=O)C(=O)N1` (stereo not drawn) [Compound 52, {6-oxaspiro[2.5]octan-1-yl}methyl N-{[2-(2,6-dioxopiperidin-3-yl)-3-oxo-2,3-dihydro-1H-isoindol-5-yl]methyl}carbamate], for which the inhibition constant Ki on CRBN-DDB1 was in the range of 100 to 1000 nM. Also, the Dmax on CDK2 was 10 to 50%.

The values above are taken from patent US20240317706A1, “COMPOUNDS THAT MEDIATE PROTEIN DEGRADATION AND METHODS OF USE THEREOF” (Monte Rosa Therapeutics, Inc., priority 2021, published 2024).
